Results from patent publication US20220041641A1, “QUATERNARY AMMONIUM SALTS AS INHIBITORS OF TRIMETHYLAMINE PRODUCTION” (Senda Biosciences, Inc., priority 2018, published 2022).
Structures can show the parent of a compound that is named as a salt.

Columns and labels:
[1] = Pharmacokinetic study of colon contents and plasma after oral dose of conjugate; assay type: in vivo, male C57B3L/6 mice; conditions: in vivo, po
Protocol: To confirm that the active agent component of the conjugate is released in the gastrointestinal tract, a pharmacokinetic study was conducted in male C57B3L/6 mice examining conjugate and active agent of concentrations in both the colon contents and plasma after oral dose of conjugate. Conjugate and active agent of were quantified by LCMS at 0 (pre-dose), 0.25, 0.5, 1, 2, 4, 6, 8, 12, and 24 hours post-dose of compound.

in vivo = assay: in vivo; parameters: species or system Sprague-Dawley rats; conditions: Sprague-Dawley, rat
Protocol: Sprague-Dawley rats (three rats per compound) were treated with a single intravenous (IV) 1 mg/kg dose or orally (PO) a single 10 mg/kg dose. Plasma concentrations of the conjugates were determined by LCMS at 5 minutes, 15 minutes, 30 minutes, 1 hour, 2 hours, 4 hours, 8 and 24 hours post compound administration. […] In addition, the plasma exposure and bioavailability of the active agent of was lower when dosed as a conjugate instead of the active agent alone.

[2] = assay type: in vitro ADME; conditions: 1 µM
Protocol: This assay was used to assess the stability of a conjugate in a large intestine.
All experiments were performed in an anaerobic chamber containing 90% nitrogen, 5% hydrogen and 5% carbon dioxide. Colonic material was resuspended as a slurry (15% w/v final concentration) in pre-reduced, anaerobically sterilized dilution blanks (Anaerobe Systems AS-908). The colonic material was then inoculated into 96 well plates containing YCFAC media (Anaerobe Systems AS-680, 6.7 μL slurry into 1 mL total media). A compound was added to each individual well to reach a final analyte concentration of 1 μM, and the material was mixed by pipetting. Each sample was removed after set timepoints (0, 120, 240, 480, 1440, 2880 minutes after initiation of the assay), quenched with acetonitrile containing internal standard, and analyzed by LCMS.

[3] = assay type: in vitro ADME; conditions: simulated gi fluid, 1 µM, pH 1.6
Protocol: This assay was used to assess the stability of a conjugate in a stomach.
Medium was prepared by dissolving 2 g of sodium chloride in 0.6 L in ultrapure water (MilliQ®, Millipore Sigma, Darmstadt, Germany). The pH was adjusted to 1.6 with 1N hydrochloric acid, and the volume was then adjusted to 1 L with purified water.
60 mg FaSSIF powder (Biorelevant™, London, UK) were dissolved in 500 mL buffer (above). Pepsin was added (0.1 mg/mL) (Millipore Sigma, Darmstadt, Germany), and the solution was stirred. The resulting SGF media were used fresh for each experiment.
(§1) Test compounds were dissolved in DMSO stock to 1 mM. An aliquot of the DMSO stock solution was removed and diluted in the SGF Media in 15 mL falcon tubes to generate a total compound concentration of 1 μM. A 1 mL aliquot was immediately removed and diluted once with 1 volume of acetonitrile for T0 timepoint. The mixture was sealed and mixed at 37° C. in an incubator. Aliquots (1 mL) were removed at regular intervals and immediately quenched by the addition of 1 volume of acetonitrile. The resulting samples were analyzed by LCMS to determine degradation rates in SGF.

[4] = assay type: in vitro ADME; conditions: simulated gi fluid, 1 µM, pH 6.7
Protocol: This assay was used to assess the stability of a conjugate in a small intestine.
Phosphate buffer was prepared by dissolving 0.42 g of sodium hydroxide pellets and 3.95 g of monobasic sodium phosphate monohydrate and 6.19 g of sodium chloride in ultrapure water (MilliQ®, Millipore Sigma, Darmstadt, Germany). The pH was adjusted to 6.7 using aq. HCl and aq. NaOH, as necessary, and the solution was diluted with ultrapure water to produce 1 L of the pH 6.7 buffer.
112 mg FaSSIF powder (Biorelevant™, London, UK) was dissolved in 50 mL of the pH 6.7 buffer. 2 to 3 mL of the resulting solution were then added to 500 mg pancreatin (Millipore Sigma, Darmstadt, Germany). The resulting mixture was agitated by finger tapping the vessel containing the mixture until milky suspension formed. At this time, the remainder of the 50 mL FaSSiF/pH 6.7 buffer solution was added. The resulting suspension was flipped upside down 10 times to produce SIF, which was used fresh.
as §1, with “SIF media” for “SGF Media”, “produce” for “generate”, “mixture with a tested” for “total”, “agitated” for “mixed”, “rates.” for “rates in SGF.”

[5] = biological target: CutC from Proteus mirabilis (Proteus mirabilis, UniProt B4EYG1); assay: Cell-based assay for TMA production from a native producer (P. mirabilis); conditions: d9-TMA from 1 mM d9-choline, 5 h, 37° C.; value 10 given when no fit or % TMA remaining at 10 μM higher than 15%; read-out: Average IC50 Whole cell P. mirabilis
Chain of CutC from Proteus mirabilis (B4EYG1 entry or part of it): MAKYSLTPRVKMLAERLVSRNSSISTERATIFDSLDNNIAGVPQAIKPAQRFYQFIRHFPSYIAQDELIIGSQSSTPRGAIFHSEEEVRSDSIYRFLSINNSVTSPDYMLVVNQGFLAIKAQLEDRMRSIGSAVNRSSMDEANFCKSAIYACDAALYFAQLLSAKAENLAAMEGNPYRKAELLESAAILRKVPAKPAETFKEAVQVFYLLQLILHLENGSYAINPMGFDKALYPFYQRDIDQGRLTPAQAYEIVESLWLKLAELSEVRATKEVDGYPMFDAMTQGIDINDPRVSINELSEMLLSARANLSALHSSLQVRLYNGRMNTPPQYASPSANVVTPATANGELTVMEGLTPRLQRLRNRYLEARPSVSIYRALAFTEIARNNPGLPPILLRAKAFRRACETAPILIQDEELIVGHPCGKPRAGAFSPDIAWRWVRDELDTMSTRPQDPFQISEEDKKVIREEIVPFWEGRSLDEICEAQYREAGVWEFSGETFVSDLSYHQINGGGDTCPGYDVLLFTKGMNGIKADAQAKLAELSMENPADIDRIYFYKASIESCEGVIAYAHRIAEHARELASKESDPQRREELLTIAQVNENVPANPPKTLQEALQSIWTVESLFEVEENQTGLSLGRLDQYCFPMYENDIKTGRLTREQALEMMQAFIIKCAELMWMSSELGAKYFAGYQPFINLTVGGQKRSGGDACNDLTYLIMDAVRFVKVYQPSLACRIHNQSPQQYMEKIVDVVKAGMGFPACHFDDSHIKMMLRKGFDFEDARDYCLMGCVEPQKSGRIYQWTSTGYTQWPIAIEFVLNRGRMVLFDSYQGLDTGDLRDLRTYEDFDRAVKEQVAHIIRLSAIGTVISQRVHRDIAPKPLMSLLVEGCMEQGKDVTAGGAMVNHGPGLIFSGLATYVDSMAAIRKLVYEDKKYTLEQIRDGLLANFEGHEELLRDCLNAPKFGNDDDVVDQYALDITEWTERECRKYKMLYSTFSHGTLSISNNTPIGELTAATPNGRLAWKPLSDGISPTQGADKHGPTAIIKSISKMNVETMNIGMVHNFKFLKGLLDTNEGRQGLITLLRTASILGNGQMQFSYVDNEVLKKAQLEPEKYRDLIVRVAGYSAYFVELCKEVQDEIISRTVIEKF
Chain of CutC from Proteus mirabilis (B4EYG0 entry or part of it, further chain): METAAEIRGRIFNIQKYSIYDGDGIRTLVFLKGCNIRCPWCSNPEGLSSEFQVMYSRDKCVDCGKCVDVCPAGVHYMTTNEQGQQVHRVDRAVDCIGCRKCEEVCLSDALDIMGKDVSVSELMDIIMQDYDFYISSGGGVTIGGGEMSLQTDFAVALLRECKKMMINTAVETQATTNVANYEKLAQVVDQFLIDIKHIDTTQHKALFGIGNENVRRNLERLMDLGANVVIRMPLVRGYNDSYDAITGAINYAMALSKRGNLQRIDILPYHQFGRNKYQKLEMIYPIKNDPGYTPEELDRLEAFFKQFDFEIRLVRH
Method in brief: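 Overnight anaerobic cultures of P. mirabilis or C. sporogenes, grown in BHI with 1 mM choline, were diluted and given 1 mM (trimethyl-d9)-choline plus compound at 10 μM final. After 5 h at 37° C., d9-TMA was quantified by LCMS.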

CutC/D enzyme = assay: Acute mouse model (plasma TMAO on choline diet); assay type: in vivo, male C57BL/6 mice
Method in brief: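 Male C57BL/6 mice fed a diet with 1.0% choline (g/g) received compound in water by oral gavage once daily on days 1–3. Plasma taken 20 h after the last dose was protein-precipitated and TMAO quantified by LC-MS/MS against a 0.05-100 μM d9-TMAO calibration curve in control plasma.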

| Structure (SMILES) | Assay 3- Colonic Material Stability Assay % Remaining at 24 hr [2] | Assay 1- FaSSGF Stability: % Remaining at 1 hr [3] | Assay 2- FaSSIF Stability: % Remaining at 4 hr [4] | IC50 [5] | other results |
| --- | --- | --- | --- | --- | --- |
| CC(=O)OCC1OC(OCC[N+](C)(C)CCl)C(OC(C)=O)C(OC(C)=O)C1OC(C)=O.[I-] (stereo in doubt) [Compound 78, N-(chloromethyl)-N,N-dimethyl-2-(((2S,3S,4R,5S,6S)-3,4,5-triacetoxy-6-(acetoxymethyl)tetrahydro-2H-pyran-2-yl)oxy)ethan-1-aminium Iodide] |  |  |  |  | Cmax ([1]; male, C57B3L/6, mouse): 70 nM; Plasma Cmax ([1]; mouse): Not; Cmax (in vivo; iv, 1 mg/kg): 8310 nM; % F (in vivo; po, 10 mg/kg): 1.91%; Cmax (in vivo; po, 10 mg/kg): 130 nM; bioavailability (in vivo; po, 10 mg/kg): 0.99% |
| C#CC[N+](C)(C)CCO[C@@H]1O[C@H](COC(=O)CCC)[C@@H](OC(=O)CCC)[C@H](OC(=O)CCC)[C@H]1OC(=O)CCC.[I-] [Compound 1, N,N-dimethyl-N-(2-(((2R,3R,4S,5R,6R)-3,4,5-tris(butyryloxy)-6-((butyryloxy)methyl)tetrahydro-2H-pyran-2-yl)oxy)ethyl)prop-2-yn-1-aminium iodide] | 80% | 84.79% | 30.79% |  |  |
| C#CC[N+](C)(C)CCO[C@@H]1OC[C@@H](OC(C)=O)[C@H](OC(C)=O)[C@H]1OC(C)=O.[I-] [Compound 8, N,N-dimethyl-N-(2-(((3R,4S,5R)-3,4,5-triacetoxytetrahydro-2H-pyran-2-yl)oxy)ethyl)prop-2-yn-1-aminium iodideiodideiodideiodideiodide] | 17% | 105.93% | 113.28% | ≥ 10 µM | % change from vehicle control + choline diet (CutC/D enzyme; Table 4d, 100 mg/kg oral gavage days 1-3): −33%; Mean plasma TMAO (CutC/D enzyme; Table 4d, 100 mg/kg oral gavage days 1-3, plasma 20 h after last gavage): 12.5 µM |
| C#CC[N+](C)(C)CC(=O)O[C@H]1CO[C@H]2[C@@H]1OC[C@H]2O.O=C([O-])C(F)(F)F [Compound 70, N-(2-(((3S,3aR,6R,6aR)-6-hydroxyhexahydrofuro[3,2-b]furan-3-yl)oxy)-2-oxoethyl)-N,N-dimethylprop-2-yn-1-aminium trifluoroacetate] | 47% | 98.36% | 28.06% | ≥ 10 µM |  |
| C#CC[N+](C)(C)CCO[C@@H]1CO[C@H]2[C@@H]1OC[C@@H]2O [Compound 72, N-(2-(((3R,3aR,6S,6aR)-6-hydroxyhexahydrofuro[3,2-b]furan-3-yl)oxy)ethyl)-N,N-dimethylprop-2-yn-1-aminium trifluoroacetate] | 110% | 102.71% |  | ≥ 10 µM |  |
| Br.C#CC[N+](C)(C)CC(=O)O[C@@H]1CO[C@H]2[C@@H]1OC[C@@H]2O [Compound 73, N-(2-(((3R,3aR,6S,6aR)-6-hydroxyhexahydrofuro[3,2-b]furan-3-yl)oxy)-2-oxoethyl)-N,N-dimethylprop-2-yn-1-aminium bromide] | 44% | 107.49% | 62.73% | ≥ 10 µM |  |
| C#CC[N+](C)(C)CCO[C@H]1CO[C@H]2[C@@H]1OC[C@H]2O [Compound 74, N-(2-(((3S,3aR,6R,6aR)-6-hydroxyhexahydrofuro[3,2-b]furan-3-yl)oxy)ethyl)-N,N-dimethylprop-2-yn-1-aminium trifluoroacetate] | 99% | 107.3% | 121.56% | ≥ 10 µM |  |
| CC(=O)OC[C@H]1O[C@@H](OCC[N+](C)(CF)C2CC2)[C@H](OC(C)=O)[C@@H](OC(C)=O)[C@@H]1OC(C)=O.[I-] (stereo partly drawn) [Compound 86, N-(fluoromethyl)-N-methyl-N-(2-{[(2R,3R,4S,5R,6R)-3,4,5-tris(acetyloxy)-6-[(acetyloxy)methyl]oxan-2-yl]oxy}ethyl)cyclopropanaminium Iodide] | 56% |  |  | ≥ 10 µM | % change from vehicle control + choline diet (CutC/D enzyme; Table 4g, 37.3 mg/kg oral gavage days 1-3): −33%; Mean plasma TMAO (CutC/D enzyme; Table 4g, 37.3 mg/kg oral gavage days 1-3, plasma 20 h after last gavage): 18.6 µM; % change from vehicle control + choline diet (CutC/D enzyme; Table 4g, 112 mg/kg oral gavage days 1-3): −83%; Mean plasma TMAO (CutC/D enzyme; Table 4g, 112 mg/kg oral gavage days 1-3, plasma 20 h after last gavage): 4.72 µM |
| C#CC[N+](C)(C)CC(=O)O[C@@H]1O[C@H](COC(C)=O)[C@@H](OC(C)=O)[C@H](OC(C)=O)[C@H]1OC(C)=O [Compound 303, N,N-dimethyl-N-(2-oxo-2-(((2S,3R,4S,5R,6R)-3,4,5-triacetoxy-6-(acetoxymethyl)tetrahydro-2H-pyran-2-yl)oxy)ethyl)prop-2-yn-1-aminium Trifluoroacetate] | 0.16% | 60.49% | 0.03% |  |  |
| C#CC[N+](C)(C)CC(=O)OC[C@H]1OC(OC(C)=O)[C@H](OC(C)=O)[C@@H](OC(C)=O)[C@@H]1OC(C)=O.O=C([O-])C(F)(F)F (stereo partly drawn) [Compound 304, N,N-dimethyl-N-(2-oxo-2-(((2R,3R,4S,5R)-3,4,5,6-tetraacetoxytetrahydro-2H-pyran-2-yl)methoxy)ethyl)prop-2-yn-1-aminium Trifluoroacetate] | 0.94% | 114.28% | 13.44% |  |  |
